The structures appear in SMILES notation.

`O=S(=O)(c1ccc(Nc2nccc(-c3ccc(C(F)(F)F)cc3)n2)cc1)N1CCOCC1` [Exemplary Compound 39, N-[4-(Morpholin-4-ylsulfonyl)phenyl]-4-[4-(trifluoromethyl)phenyl]pyrimidin-2-amine]: the melting point fell in the range of 240 to 241 °C.

In turn, `O=S(=O)(NCCCO)c1ccc(Nc2nccc(-c3ccc(C(F)(F)F)cc3)n2)cc1` [Exemplary Compound 68, N-(3-hydroxypropyl)-4-({4-[4-(trifluoromethyl)phenyl]pyrimidin-2-yl}amino)-benzenesulfonamide] displayed a melting point of 204 to 205 °C.

Source of the values: patent US20070244140A1, “Anilino-pyrimidine phenyl and benzothiophene analogs” (Wyeth, priority 2006, published 2007).
